Assay results: US20210317090A1, “AMINO ACID DEPLETION AGENTS AS ANTIPROLIFERATIVE AGENTS” (University of Central Florida Research Foundation, Inc., priority 2018, published 2021)
Read-outs that look alike come from different tables or passages of the source.

Assays:
L3.6pl cells = assay: Intracellular polyamine and Ant-44 levels (N-dansylation, HPLC) in L3.6pl cells; format: cell-based, human; conditions: for Intracellular Putrescine / Intracellular Spermidine / Intracellular Spermine / Intracellular Total Polyamines: 72 hr
Protocol: One explanation for the enhanced potency was that compound 10 (1666.255) increased polyamine import and, as a result, may have increased intracellular Ant-44 levels. To test this hypothesis, L3.6pl cells were dosed with a fixed concentration of Ant-44 (2 μM) alone and in combination with increasing concentrations of compound 10 (1666.255) to explore how this combination therapy affected intracellular polyamine pools and Ant-44 import.
FIG. 7 is an example according to various embodiments, illustrating both single and combination therapies in L3.6pl cells with Ant-44 and compound 10 (1666.255) after 72 h incubation. Polyamine and Ant-44 levels (expressed as nmoles/mg protein) and relative % viability versus an untreated control were observed after 72 h incubation at 37° C. The untreated control was run in parallel and polyamine levels determined in duplicate and % cell viability in triplicate. Ant-44 was dosed at a fixed concentration of 2 μM and compound 10 (1666.255) at increasing concentrations. Cell viability tracked well with total intracellular polyamine levels (sum of putrescine, spermidine and spermine).
It was concluded that compound 10 was neither acting as a PTI nor as a polyamine import agonist. How then could it lead to intracellular polyamine depletion? […] To test this hypothesis, L3.6pl cells were dosed with increasing concentrations of compound 10 (1666.255) without Ant44. If compound 10 (1666.255) was acting on polyamine pools, one should see a reduction in total polyamine levels as well as decreased cell viability in a dose dependent manner upon increasing levels of 10. Therefore, the toxicity of compound 10 and intracellular polyamine levels after 72 h exposure to 10 were measured (FIG. 8).
FIG. 8 is an example according to various embodiments, illustrating intracellular polyamine levels (expressed as nmoles polyamine/mg protein) in L3.6pl cells dosed with increasing concentrations of compound 10 (1666.255) after cells were incubated for 72 h at 37° C. The untreated control was run in parallel and polyamine levels determined in duplicate via N-dansylation and HPLC. The data was averaged and reported as nmol polyamine (PA)/mg protein.
This example illustrates aspects according to various embodiments pertaining to a 72 h experiment with Compound 10 in L3.6pl cells. Ten milliliters of a cell suspension containing L3.6pl human pancreatic cancer cells (50,000 cells/mL) and aminoguanidine (1 mM) were placed in treated plastic Petri dishes (d=9 cm) and incubated overnight at 37° C. After 24 h, the cells were dosed with compound 10 at 2 μM, 5 μM, or 7 μM. (Note: Stock solutions of 10 at 2, 5, and 7 mM were dissolved in phosphate buffered saline (PBS) and were filtered through a 0.2 μm filter prior to use. The experiments were maintained with a total volume of 10.01 mL where 10 mL of the cell suspension was placed in a plastic dish and each compound or the equivalent PBS volume was added to make up the total volume 10.01 mL for each dish. For example, for the control experiment PBS (10 μL) was added to make up the total volume (10 mL+10 μL=10.01 mL). After 72 h incubation, the cells were collected first by pipetting off the supernatant containing floating dead cells from the culture dish as well as media and placing them into 15 mL tubes. The supernatant containing floating cells was centrifuged (4 min at 1,000 rpm). The cell-free supernatant (supernatant #1) was collected into a new 15 mL tube and quantified (˜8.6 mL) and was then stored frozen and was later quantified by LCMS to investigate the media composition of particular polyamine and amino acid analytes. The attached cells on the dish were washed with PBS (5 mL). The PBS wash was removed by suction and additional PBS (2 mL) was added and again suctioned off to provide twice-washed cells still adhered to the dish. Trypsin (2 mL) was then added to each dish and incubated (3-5 min) until all the cells were detached. Fresh media (8 mL) was added to quench the trypsin. […]

CHO K1 cells = assay: cells; format: cell-based, Chinese hamster; conditions: for EC50: Cricetulus griseus, Ant-44 0.5 μM
Protocol: Various embodiments involve the concept that a non-toxic PTI agent would inhibit the uptake of the cytotoxic polyamine conjugate Ant-44 (11) and rescue cells from Ant-44 induced toxicity. For example, using the IC50 dose of Ant-44, PTIs could be identified by measuring a compound's ability to block Ant-44 entry and rescue cells back to >90% viability. […] This toxic dose of Ant-44 was kept constant throughout the assay, while the candidate PTI compound was added in increasing concentrations up to its MTD.
Compounds (9 and 10) were tested at 5 μM and 7 μM. CHO K1 cells were treated in a 96-well plate with a toxic dose of Ant-44 (2.4 μM) alone and dosed with the candidate compounds (at 5 μM and 7 μM) and incubated for 48 h at 37° C.
To further explore this effect, development of various embodiments included modifying an original screen to use a lower dose of Ant-44 (0.5 μM) to improve the dose range of 9 and 10 that could be tested. In this regard, Ant-44 was dosed at 0.5 μM alone and in combination with increasing doses of compounds 9 (1666.177) and 10 (1666.255) and the CHO K1 cells were incubated for 48 h at 37° C., and the results are shown in FIG. 5. The red line represents the % cell viability of the Ant-44 only control. The Ant44 potentiation assay EC50 value is defined as the concentration of the candidate compound required to decrease the cell viability to half that of the Ant-44 only control. Both compounds 9 and 10 were effective at decreasing cell viability, when used in combination with Ant-44 in a dose dependent fashion.
FIG. 5 is an example according to various embodiments, illustrating potentiation of Ant-44 toxicity by compounds 9 and 10 in CHO K1 cells. Cells were incubated for 48 h at 37° C. with the respective compound and a fixed concentration of cytotoxic Ant-44 (0.5 μM). A 1 mM AG solution was incubated with the CHO K1 cells for 24 h prior to the addition of candidate compound. This was necessary to protect Ant-44 from the amine oxidases present in the media containing fetal bovine serum. […] Both compounds are nontoxic at the highest concentration tested (5 μM).

CHO-K1 cells = assay: Rescue by exogenous native polyamines in CHO-K1 cells; format: cell-based, Chinese hamster; conditions: CHO-K1, toxic concentration of compound 10 (results not shown)

## CC(C)CCN1CCN(C(CNCc2ccccc2)CC2CCCCC2)CC1CC(C)C.Cl.Cl.Cl (centres unmarked) [Compound 10, Benzyl-{3-cyclohexyl-2-[3-isobutyl-4-(3-methyl-butyl)-piperazin-1-yl]-propyl}-amine trihydrochloride salt]
L3.6pl cells; 2 μM
  Intracellular Putrescine: 6.2 ± 0.7 nmol polyamine/mg protein
  Intracellular Spermidine: 27.1 ± 2.4 nmol polyamine/mg protein
  Intracellular Spermine: 16.1 ± 0.0 nmol polyamine/mg protein
  Intracellular Total Polyamines: 49.5 ± 3.1 nmol polyamine/mg protein
L3.6pl cells; 5 μM
  Intracellular Putrescine: 6.0 ± 0.9 nmol polyamine/mg protein
  Intracellular Spermidine: 17.6 ± 1.8 nmol polyamine/mg protein
  Intracellular Spermine: 14.9 ± 1.1 nmol polyamine/mg protein
  Intracellular Total Polyamines: 38.5 ± 3.4 nmol polyamine/mg protein
L3.6pl cells; 7 μM
  Intracellular Putrescine: 5.9 ± 0.3 nmol polyamine/mg protein
  Intracellular Spermidine: 15.6 ± 0.1 nmol polyamine/mg protein
  Intracellular Spermine: 12.7 ± 0.6 nmol polyamine/mg protein
  Intracellular Total Polyamines: 34.2 ± 0.9 nmol polyamine/mg protein
L3.6pl cells; Ant-44 2 μM with compound 10 at 1 μM, 72 h
  intracellular level of Ant-44: 2.08 nmol Ant44/mg protein
CHO K1 cells; CHO K1 cells
  times more effective at potentiating Ant-44 than compound 9: approximately 12.5 times
CHO K1 cells; CHO K1 cells, 48 h (FIG. 5), read-out: Ant-44 potentiation EC50
  EC50: 0.06 µM
CHO K1 cells; CHO cells, 48 h, read-out: Ant44 potentiation assay EC50
  EC50: 0.06 µM
CHO-K1 cells
  rescue of treated cells by native polyamines: unable to rescue
